We go through three compounds from ChEMBL document CHEMBL5038651, “Design, Synthesis, and Biological Evaluation of 2-((4-Bisarylmethyl-piperazin-1-yl)methyl)benzonitrile Derivatives as HCV Entry Inhibitors” (J Med Chem, 2022).

Series [1] concerns Hepatitis C virus. The experiment in a line: Antiviral activity against HCVcc infected in human Huh7.5 cells assessed as inhibition of viral replication. It counts as functional, organism-based, Hepacivirus hominis.
Series [2] deals with Hepatitis C virus. Description: Antiviral activity against HCV infected in human Huh7.5 cells assessed as reduction in HCV core protein expression measured after 72 hrs by Western blotting analysis. In kind it is functional, organism-based. To be noted: Hepacivirus hominis. Background: Immunoblotting shows a protein as a band on a membrane.
Series [3] deals with Hepatitis C virus. Description: Antiviral activity against HCV infected in human Huh7.5 cells incubated for 72 hrs by in-cell western assay. In kind it is functional, organism-based, Hepacivirus hominis. To be noted: Huh7.5, 72 h.
A short description of series [4]: (§1) Cytotoxicity against human Huh7.5 cells assessed as reduction in cell viability incubated for 96 hrs by MTT assay. It counts as toxicity, cell-based, Huh-7.5. To be noted: Huh7.5 cells. For orientation: Formazan colour is commonly taken as a measure of viable cells.
The next series has as its system Hepacivirus hominis. The experiment in a line: Binding affinity to HCV E1 protein at 12.5 to 200 uM by SPR analysis. As to conditions: dose 12.5-200 µM. A general note: In SPR one partner is held on a chip, and binding of the other changes the refractive index at the surface.
The test system of series [5] is Hepatitis C virus. Description: Antiviral activity against HCV infected in human Huh7.5 cells carrying HCV subgenomic replicons assessed as inhibition of viral replication. It counts as functional, organism-based, Hepacivirus hominis.
Series [6] in a line: Half life in Sprague-Dawley rat at 15 mg/kg, po administered as single dose measured upto 24 hrs by LC-MS/MS analysis. In kind it is ADME, organism-based. As to conditions: in vivo.
Series [7] concerns Hepatitis C virus. The experiment in a line: Antiviral activity against HCV infected in human Huh7.5 cells assessed as reduction in HCV core protein expression preincubated for 2 hrs followed by viral infection and measured after 72 hrs by Western blotting analysis. It counts as functional, organism-based. To be noted: Hepacivirus hominis, time 74.0 hrs.
The nature of series [8]: Plasma concentration in Sprague-Dawley rat at 15 mg/kg, po administered as single dose measured up to 24 hrs by LC-MS/MS analysis. It counts as ADME, organism-based.
A short description of series [9]: Cmax in Sprague-Dawley rat at 15 mg/kg, po administered as single dose measured upto 24 hrs by LC-MS/MS analysis. In kind it is ADME, organism-based. The arrangement: route oral, dose 15 mg/kg, time <=24. As to conditions: in vivo.
Series [10] relates to Hepatitis C virus. Description: Antiviral activity against HCV infected in human Huh7.5 cells assessed as reduction in HCV core protein expression at 6.4 nM incubated for 72 hrs by in-cell western assay. In kind it is functional, organism-based. As to conditions: Hepacivirus hominis.
The test system of series [11] is Hepatitis C virus. Description: Antiviral activity against HCV infected in human Huh7.5 cells carrying HCV subgenomic replicons assessed as inhibition of viral replication at 1.4 uM. It counts as functional, organism-based. As to conditions: Hepacivirus hominis.
The test system of series [12] is Hepatitis C virus. The experiment in a line: Antiviral activity against HCV infected in human Huh7.5 cells assessed as reduction in viral RNA level preincubated for 2 hrs prior to viral infection and measured after 72 hrs by RT-qPCR analysis. It counts as functional, organism-based. As to conditions: Hepacivirus hominis, time 74.0 hrs.
Series [13] in a line: AUC (0 to infinity) in Sprague-Dawley rat at 15 mg/kg, po administered as single dose measured upto 24 hrs by LC-MS/MS analysis. The arrangement: route oral, dose 15 mg/kg, time <=24. As to conditions: in vivo. It counts as ADME, organism-based.
A short description of series [14]: MRT in Sprague-Dawley rat at 15 mg/kg, po administered as single dose measured upto 24 hrs by LC-MS/MS analysis. In kind it is ADME, organism-based. As to conditions: in vivo.
A short description of series [15]: Cytotoxicity against human Huh7.5 cells infected with HCVcc assessed as reduction in cell viability incubated for 96 hrs by MTT assay. In kind it is toxicity, cell-based, Huh-7.5.
Series [16] in a line: Tmax in Sprague-Dawley rat at 15 mg/kg, po administered as single dose measured upto 24 hrs by LC-MS/MS analysis. As to conditions: in vivo. In kind it is ADME, organism-based.
A short description of series [17]: Selectivity index, ratio of CC50 for cytotoxicity against human Huh7.5.1 cells to EC50 for antiviral activity against HCV infected in human Huh7.5.1 cells. In kind it is toxicity, cell-based.
Series [18] has as its target Histamine H1 receptor (Homo sapiens) (UniProt P35367). Description: Antagonist activity against H1 receptor (unknown origin) expressed in HEK cells at 1 uM relative to control. In kind it is functional, cell-based.
Series [19] in a line: Cytotoxicity against human Huh7.5 cells carrying HCV subgenomic replicons assessed as reduction in cell viability incubated for 96 hrs by MTT assay. In kind it is toxicity, cell-based, Huh-7.5.
Series [20] relates to Hepatitis C virus. The experiment in a line: Antiviral activity against HCV infected in human Huh7.5 cells assessed as reduction in viral RNA level measured after 72 hrs by RT-qPCR analysis. To be noted: Hepacivirus hominis. It counts as functional, organism-based.
The subject of series [21] is Hepatitis C virus. The experiment in a line: Antiviral activity against HCV infected in human Huh7.5 cells assessed as reduction in viral RNA level pre-infected with virus for 2 hrs followed by compound addition and measured after 72 hrs by RT-qPCR analysis. It counts as functional, organism-based. As to conditions: Hepacivirus hominis.
In series [22] the test system is Hepatitis C virus. The experiment in a line: Antiviral activity against HCV infected in human Huh7.5 cells assessed as reduction in HCV core protein expression pre-infected with virus for 2 hrs followed by compound addition and measured after 72 hrs by Western blotting analysis. To be noted: Hepacivirus hominis. In kind it is functional, organism-based.
A short description of series [23]: Selectivity index, ratio of CC50 for cytotoxicity against human Huh7.5 cells infected with HCVcc to EC50 for antiviral activity against HCVcc infected in human Huh7.5 cells. It counts as toxicity, cell-based. To be noted: read-out: Ratio CC50/EC50.
The test system of a further series is Huh-7.5. The description is as §1. In kind it is toxicity, cell-based. To be noted: huh-7.5, 96 h, 96 h.

The source made the active and inactive calls. Bounds are passed on as bounds.

Sequence of Histamine H1 receptor (Homo sapiens) (P35367 whole entry): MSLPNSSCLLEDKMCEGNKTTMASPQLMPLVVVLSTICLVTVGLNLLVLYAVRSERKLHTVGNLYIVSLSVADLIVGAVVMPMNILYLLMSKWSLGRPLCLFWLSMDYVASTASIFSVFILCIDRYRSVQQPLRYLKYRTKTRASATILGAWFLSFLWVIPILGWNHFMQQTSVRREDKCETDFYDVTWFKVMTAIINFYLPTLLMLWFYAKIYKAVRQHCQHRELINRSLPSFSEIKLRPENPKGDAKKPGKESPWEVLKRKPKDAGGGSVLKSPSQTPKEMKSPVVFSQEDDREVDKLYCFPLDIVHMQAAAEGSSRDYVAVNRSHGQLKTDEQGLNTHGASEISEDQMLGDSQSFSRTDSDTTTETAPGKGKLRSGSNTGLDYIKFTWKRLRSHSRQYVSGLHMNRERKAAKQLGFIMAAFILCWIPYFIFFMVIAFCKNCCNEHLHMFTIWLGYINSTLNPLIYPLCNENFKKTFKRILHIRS

In the case of `CN1CCCN(c2ccc(C#N)c(CN3CCN(C(c4ccccc4)c4ccc(Cl)cc4)CC3)c2)CC1` (stereo not given), the EC50 – broadly, the concentration that produces a half-maximal response – is 0.00333 µM in the series with Hepatitis C virus [1], 0.004 µM in the series on Hepatitis C virus [3] and above 1.6 µM in the series on Hepatitis C virus [5]. Further, the result with Hepatitis C virus [2], in the series on Hepacivirus hominis, in the series on Hepatitis C virus [10], with Hepatitis C virus [21] and in the series with Hepatitis C virus [22] was Active. Further, the results for the CC50 at 96 h in [4], in [15] and in [19] were 7.34 µM, 3.72 µM and 5.22 µM, respectively. For the same compound, the half-life (usually the time needed for the level to fall by half in the phase considered) in [6] was 4.87 h. The result (in the series with Hepatitis C virus [7]; in the series on Hepatitis C virus [11]; in the series with Hepatitis C virus [12]; in series [18]; with Hepatitis C virus [20]) was inactive. The concentration at 24 h in series [8] was 6.06 ng/mL. In addition, the Cmax (usually the maximum level reached in the sampled fluid or tissue) in [9] is 97.9 ng/mL. The AUC(0-inf) (in general, total exposure, with the tail of the curve extrapolated) in series [13] is 848 ng·h/mL. Besides, the MRT (commonly the average time that molecules of a dose stay in the body) in series [14] came out at 8.59 h. For the same compound, the Tmax (as a rule, the time from dosing to the highest level) in series [16] amounted to 5.33 h. Besides, the selectivity ratio in series [17] (read-out: Ratio CC50/EC50) worked out at 1930.
Take `CN1CCCN(c2ccc(C#N)c(CN3CCN(C(c4ccc(F)cc4)c4ccc(F)cc4)CC3)c2)CC1`: the EC50 was 0.00289 µM with Hepatitis C virus [1], 0.005 µM with Hepatitis C virus [3] and above 1.6 µM in the series with Hepatitis C virus [5]. For the same compound, the result with Hepatitis C virus [2], with Hepacivirus hominis, with Hepatitis C virus [10], with Hepatitis C virus [21] and in the series with Hepatitis C virus [22] was Active. Moreover, the figures for the CC50 at 96 h in series [4], in [15] and in series [19] were 6.24 µM, 3.31 µM and 3.95 µM, respectively. Further, the half-life in series [6] was 5.66 h. In addition, the outcome (in the series on Hepatitis C virus [7]; with Hepatitis C virus [11]; with Hepatitis C virus [12]; in series [18]; in the series on Hepatitis C virus [20]) was inactive. The concentration at 24 h in series [8] came out at 4.98 ng/mL. In series [9], this compound returned a Cmax of 78 ng/mL. Also, in [13], the AUC(0-inf) was found to be 639 ng·h/mL. This compound also showed an MRT in [14] of 9.43 h. The time to peak (Tmax) in series [16] came to 2.69 h. Also, the selectivity ratio in [23] is 1140; in [17] (read-out: Ratio CC50/EC50) it was 1130.
Turning to `CN(C)CCN(C)c1ccc(C#N)c(CN2CCN(c3ccc(Cl)cc3)CC2)c1`, the EC50 is 0.26 µM in the series with Hepatitis C virus [1], 0.175 µM with Hepatitis C virus [3] and above 1.6 µM in the series on Hepatitis C virus [5]. In the series with Huh-7.5, the CC50 – broadly, the concentration that lowers cell viability or growth by half – is above 20 µM. Further, the half-maximal cytotoxic concentration (CC50) at 96 h in series [4] was determined as 21.2 µM; in [15] it was 18.8 µM; in [19], 121 µM. Moreover, in the series with Hepacivirus hominis, the outcome was Active. The result (in the series on Hepatitis C virus [10]; in [18]) was inactive. The results for the selectivity ratio in series [23], in series [17] (read-out: Ratio) and in series [17] (read-out: Ratio CC50/EC50) were 72, above 114 and above 81, respectively.
